Assay results: patent publication US20170166981A1, “BIOMARKERS AND METHODS OF USE THEREOF” (THE TRANSLATIONAL GENOMICS RESEARCH INSTITUTE, priority 2011, published 2017)

What was measured:
BT20 breast cancer cells = conditions: reactivation of epigenetically silenced ERBB4; cited from earlier work
[1] = tested on: metastatic triple negative breast cancer (mTNBC); assay: Clinical tumor response of metastatic/locally recurrent TNBC patients to prior and molecularly-selected therapy (TNBC personalized genomics trial); type: in vivo, human
Excerpt: The secondary objective is to conduct a comprehensive evaluation of genetic mutations in TNBC that may accelerate the development of rational and precise therapeutics; and to evaluate patient's best response to molecularly-selected therapy.
A patient eligible for clinical trial inclusion in this study had to meet all of the following criteria: (1) has a metastatic or locally recurrent triple negative breast cancer and is scheduled for medically indicated surgical biopsy or resection of disease; (2) have measurable or evaluable (nonmeasurable) disease based on results generated by RECIST v 1.1 (Eisenhauera, 2009) presented after surgical biopsy/resection. Following surgical resection, if the tumor sample is found to be inadequate for comprehensive molecular analysis, the patient would be deemed ineligible and would be replaced; (3) has received at least 1 prior chemotherapeutic regimen for their metastatic or locally recurrent TNBC prior to initiating the molecularly-selected therapy. There is no limit on the prior therapy for TNBC. Intervening therapies were strongly recommended to be held off if possible from the time of biopsy to the completion of sequencing so as not to change the cancer under the selective pressure of treatment, so that the sequencing results would be reflective of the current cancer; (4) is >18 years of age; (5) has an expected survival of at least 6 months, as estimated by the treating oncologist; (6) has planned surgical resection (indicated for the medical care of the patient) that will yield a minimum fresh/frozen tumor sample of 1 cm×1 cm×1 cm that will be available for molecular profiling analysis; (6) is agreeable to having a blood sample (10-20mL) drawn and analyzed to compare their normal genetic profile to that of their tumor sample; (7) has signed the most recent Patient Informed Consent Form and a Patient Authorization Form.
A patient would be excluded from this study if she meets any of the following criteria: (1) has breast cancer other than metastatic or locally recurrent TNBC; and surgical resection of the recurrent TNBC will render the patient as “no evidence of disease” (NED), and thus to be replaced; (2) has a history of heart disease, other conditions that would prevent treatment with a standard chemotherapeutic agent; (3) has evidence of CNS involvement that is progressing or that requires radiation, resection or steroid therapy; (4) has a serious uncontrolled intercurrent medical or psychiatric illness, including serious infection; (5) is pregnant or nursing; (6) is unable to comply with requirements of study.
Generally, 14 patients with previously treated triple negative breast cancer were included in the clinical study (Table 11). Samples were collected for sequencing with the SOLiD™ system (Applied Biosystems, Carlsbad, Calif.), and the patients were treated according to what is found after CLIA certification of the target.
The baseline was measured at the beginning of the treatment, after 2 cycles (close to two months), 75% regression in primary lesion were observed (FIG. 11).
Through the deep molecular profiling study described herein, a series of somatic events within individual tumors were detected that have informed or may have predicted the effectiveness of targeted therapies for some patients. Table 21 provides key information on therapeutically actionable concepts and clinical outcomes in the patient cohort used for this example.

Nc1ncn([C@H]2C[C@H](O)[C@@H](CO)O2)c(=O)n1 [5-aza-2′-deoxycytidine]
apoptosis (BT20 breast cancer cells): increased apoptosis

Cn1c(=O)n(-c2ccc(C(C)(C)C#N)cc2)c2c3cc(-c4cnc5ccccc5c4)ccc3ncc21 [BEX235]
Best results ([1]; Patient # 1, biomarker profile guided treatment (hit only one arm of what suggested MEK/AKT)): Stable Disease

Cn1c(=O)n(-c2ccc(C(C)(C)C#N)cc2)c2c3cc(-c4cnc5ccccc5c4)ccc3ncc21 [BEZ235]
reduction in nodes ([1]; Patient 14): 21% | Best results ([1]; Patient # 3, biomarker profile guided treatment): Progressive Disease

C=C1C[C@@H]2CC[C@@]34C[C@H]5O[C@H]6[C@@H](O3)[C@H]3O[C@H](CC[C@@H]3O[C@H]6[C@H]5O4)CC(=O)C[C@@H]3[C@@H](OC)[C@@H](C[C@H](O)CN)O[C@H]3C[C@H]3O[C@@H](CC[C@@H]1O2)C[C@@H](C)C3=C [Eribulin, eribulin]
Best results ([1]; Patient # 4, biomarker profile guided treatment): Stable Disease

NC(=O)c1ccc(I)c([N+](=O)[O-])c1 [Iniparib]
clinical response ([1]; patient mTNBC9 / TNBC-009 (DNA damage and double-strand break repair defects)): responsive
